Consider 13 compounds from patent US20250176550A1, “HERBICIDE COMPOSITION OF URACIL COMPOUND CONTAINING CARBOXYLATE FRAGMENT AND THE USE THEREOF” (Jiangsu Flag Chemical Industry Co., Ltd., priority 2022, published 2025).

Where two headings read alike, the source gives them in different places.

Common to all, as to assay type: in vivo
The test system of experiment [1] is setaria viridis. The experiment in a line: Indoor virulence and combined effect, greenhouse pot test, post-emergence stem and leaf spray, fresh weight inhibition. The following applies: for inhibition at 750 g/ha: 750 g a.i./ha; for Fresh weight inhibition rate %, B single agent: Table 10. The protocol: (§1) The active ingredients A and B are respectively screened and an indoor combined effect of the composition on weeds was evaluated by an indoor test and a field test, to determine a combined effect of the composition on weeds.
Quantitative seeds of Poaceae weeds (echinochloa crusgalli, Digitaria sanguinalis, setaria viridis, Eleusine indica, avena fatua, alopecurus japonicus, alopecurus aequalis, Lolium multiflorum) and broadleaf weeds (eclipta prostrata, rorippa dubia, Abutilon theophrasti, conyza canadensis, veronica persica, myosoton aquaticum, polygonum lapathifolium, galium aparine var. tenerum, alisma plantago-aquatica, geranium carolinianum) were sown in paper cup containing nutrient soil with a diameter of 7 cm, covered with soil for 1 cm after sowing. After pressing and watering, they were cultured in a greenhouse according to a conventional method. Poaceae weeds grew to 3˜4 leaf stage, broad-leaved weeds grew to 4˜6 leaf stage, spraying treatment to both stem and leaf was performed; and pre-seedling soil spray treatment was performed 24 hours after sowing. […] The experiment was repeated three times. After being treated, a sample material is placed in an operation hall, and after the drug solution is naturally dried out, the sample material is placed in a greenhouse and managed according to the conventional method.
(§2) All of original drugs were using acetone as a solvent, being diluted with 0.1 wt % emulsifier of Tween-80 aqueous solution, and being diluted right before using.
(§3) When determining a ratio or content of the active ingredient A and the active ingredient B, it should be measured from characteristics of action of both agents and virulence thereof, as well as the main purpose of use of a formula shall also be considered in. In the present study, on a basis of previous pre-test, the dosages of the active ingredient A and the active ingredient B were set, when being used alone and mixed, as shown in the following table. Water containing no agent, but containing the same solvent and emulsifier was used as a blank control.
(§4) Repeat 4 times for each treatment, 3 pots per treatment each time and 30 weed seeds were sown for each pot.
(§5) Adopting an absolute number survey method, using a blade to cut the whole seedling of surviving weed along soil surface, and weighting the fresh weight of the weed with an analytical balance. For weeds that had died, counting the fresh weight as zero.
(§6) Survey period and frequency: 21 days after the treatment, total 1 investigation.
When E-E0 value was greater than 10%, it was counted as a synergistic effect, less than −10%, it was counted as an antagonistic effect, and between −10%˜10%, it was counted as an additive effect. […] In the formula, X is the fresh weight inhibition rate of the ingredient A at a dosage of P; Y is the fresh weight inhibition rate of the active ingredient B at a dosage of Q.

Experiment [2] relates to digitaria sanguinalis. The experiment in a line: Indoor virulence and combined effect, greenhouse pot test, pre-emergence soil spray treatment, fresh weight inhibition. As to the method: as §1
(§7) Quantitative seeds of Poaceae weeds (echinochloa crusgalli, Digitaria sanguinalis, setaria viridis, Eleusine indica, avena fatua, alopecurus japonicus, alopecurus aequalis, Lolium multiflorum) and broadleaf weeds (eclipta prostrata, rorippa dubia, Abutilon theophrasti, conyza canadensis, veronica persica, myosoton aquaticum, polygonum lapathifolium, galium aparine var. tenerum, alisma plantago-aquatica, geranium carolinianum) were sown in paper cup containing nutrient soil with a diameter of 7 cm, covered with soil for 1 cm after sowing. After pressing and watering, they were cultured in a greenhouse according to a conventional method. Poaceae weeds grew to 3˜4 leaf stage, broad-leaved weeds grew to 4˜6 leaf stage, spraying treatment to both stem and leaf was performed; and pre-seedling soil spray treatment was performed 24 hours after sowing. Following an experimental design dosage, a WP-2000 walking spray tower (spindle speed 96 mm/r, spray height 200 mm, effective spray amplitude of nozzle 350 mm, nozzle flow rate 390 mL/min, nozzle walking speed 210 mm/s) was used for the spray treatment. The experiment was repeated three times. After being treated, a sample material is placed in an operation hall, and after the drug solution is naturally dried out, the sample material is placed in a greenhouse and managed according to the conventional method. A reaction of weeds to the drug agent is observed and recorded, and a regularly visual check of a control effect of the drug agent on weeds was performed after the treatment.
as §2, §3, §4, §5, §6
(§8) The theoretical fresh weight inhibition rate (E0-Expected Efficacy=[…]) of each treatment combination was calculated by Gowing method, and then compared with the measured inhibition rate (E-Observed Efficacy) to evaluate the combined effect type of both on weeds. When E-E0 value was greater than 10%, it was counted as a synergistic effect, less than −10%, it was counted as an antagonistic effect, and between −10%˜10%, it was counted as an additive effect. According to a plurality of factors including an actual control efficacy, a herbicide characteristic, a formula balance and other factors to determine the best ratio. In the formula, X is the fresh weight inhibition rate of the ingredient A at a dosage of P; Y is the fresh weight inhibition rate of the active ingredient B at a dosage of Q.
(§9) The statistical results are shown in Table 1 to Table 44 below, except for those marked clearly as “pre-emergence treatment”, all others are “post-emergence treatment”. […]

The subject of experiment [3] is eclipta prostrata. Described as above. The protocol: as §1, §7, §2, §3, §4, §5, §6, §8, §9
Experiment [4] relates to eclipta prostrata. The experiment in a line: Indoor virulence and combined effect, greenhouse pot test, post-emergence stem and leaf spray, fresh weight inhibition. The protocol:
as §1, §7, §2, §3, §4, §5, §6, §8, §9

The subject of experiment [5] is alopecurus japonicus. Described as above. The following applies: for inhibition at 25 g/ha: 25 g a.i./ha; for Fresh weight inhibition rate %, B single agent: Table 25. As to the method: as §1, §7, §2, §3, §4, §5, §6, §8, §9
Experiment [6] concerns eleusine indica. Put plainly: Indoor virulence and combined effect, greenhouse pot test, pre-emergence soil spray treatment, fresh weight inhibition. The protocol:
as §1, §7, §2, §3, §4, §5, §6, §8, §9

On to `CCC(=O)Nc1ccc(Cl)c(Cl)c1` [propanil], for which, in experiment [1] (Setaria viridis, 504 h, Table 6, 500 g a.i./ha, post-emergence, 21 days after treatment, read-out: Fresh weight inhibition rate %, B single agent), the inhibition at 500 g/ha turned out to be 48.1%. Besides, the inhibition at 750 g/ha in experiment [1] (Setaria viridis, 504 h, Table 6, post-emergence, 21 days after treatment, read-out: Fresh weight inhibition rate %, B single agent) came to 58.1%. In experiment [1] (Setaria viridis, 504 h, Table 6, 1000 g a.i./ha, post-emergence, 21 days after treatment, read-out: Fresh weight inhibition rate %, B single agent), the inhibition at 1000 g/ha was found to be 69.1%.
Turning to `CCCN(CCC)c1c([N+](=O)[O-])cc(C(F)(F)F)cc1[N+](=O)[O-]` [trifluralin], the “Fresh weight inhibition rate %, B single agent” value (from here on “Fresh weight inhibition rate %”) worked out at 12.50% in experiment [2] (Table 39, B 156.25 g a.i./ha); 48.67% in experiment [2] (Table 39, B 250 g a.i./ha); 62.58% in experiment [2] (Table 39, B 375 g a.i./ha).
As to `CCc1cccc(C)c1N(C(=O)CCl)[C@@H](C)COC` [S-metolachlor], the “Fresh weight inhibition rate %” value in experiment [3] (Table 28, B 300 g a.i./ha) is on record as 45.64%; in experiment [3] (Table 28, B 450 g a.i./ha), 57.41%; in experiment [3] (Table 28, B 600 g a.i./ha), 61.78%; in experiment [3] (Table 28, B 750 g a.i./ha) it was 70.72%.
For `CCOC(=O)COC(=O)c1cc(Oc2ccc(C(F)(F)F)cc2Cl)ccc1[N+](=O)[O-]` [fluoroglycofen-ethyl], the “Fresh weight inhibition rate %” value in experiment [4] (Table 12, B 8 g a.i./ha) is 11.99%; in experiment [4] (Table 12, B 16 g a.i./ha), 27.44%; in experiment [4] (Table 12, B 20 g a.i./ha), 42.03%.
With `Cc1cc(Cl)ccc1OCC(=O)[O-].[Na+]` [MCPA-sodium], the “Fresh weight inhibition rate %” value was found to be 37.73% in experiment [4] (Table 43, B 80 g a.i./ha) and 45.00% in experiment [4] (Table 43, B 160 g a.i./ha).
Take `CCc1cc(C)cc(CC)c1-c1c(OC(=O)C(C)(C)C)n2n(c1=O)CCOCC2` [pinoxaden]: in experiment [5] (Alopecurus japonicus, 504 h, Table 7, 15 g a.i./ha, post-emergence, 21 days after treatment, read-out: Fresh weight inhibition rate %, B single agent), the inhibition at 15 g/ha is 38.8%. For the same compound, in experiment [5] (Alopecurus japonicus, 504 h, Table 7, 20 g a.i./ha, post-emergence, 21 days after treatment, read-out: Fresh weight inhibition rate %, B single agent), the inhibition at 20 g/ha stood at 42.3%. The inhibition at 25 g/ha in experiment [5] (Alopecurus japonicus, 504 h, Table 7, post-emergence, 21 days after treatment, read-out: Fresh weight inhibition rate %, B single agent) amounted to 58.7%.
As to `CCCCCCC(C)OC(=O)COc1nc(F)c(Cl)c(N)c1Cl` (stereo not drawn) [fluroxypyr-meptyl], the “Fresh weight inhibition rate %” value in experiment [4] (Table 42, B 32 g a.i./ha) was 30.91%; in experiment [4] (Table 42, B 40 g a.i./ha), 34.55%; in experiment [4] (Table 42, B 60 g a.i./ha), 39.55%; in experiment [4] (Table 42, B 80 g a.i./ha) it was 73.18%.
Regarding `CCSC(C)CC1CC(=O)C(/C(CC)=N/OC/C=C/Cl)=C(O)C1` (stereo not drawn) [clethodim], in experiment [5] (Alopecurus japonicus, 504 h, Table 5, post-emergence, 21 days after treatment, read-out: Fresh weight inhibition rate %, B single agent), the inhibition at 25 g/ha stood at 7.52%. In addition, the inhibition at 40 g/ha in experiment [5] (Alopecurus japonicus, 504 h, Table 5, 40 g a.i./ha, post-emergence, 21 days after treatment, read-out: Fresh weight inhibition rate %, B single agent) turned out to be 34.8%. For the same compound, the inhibition at 60 g/ha in experiment [5] (Alopecurus japonicus, 504 h, Table 5, 60 g a.i./ha, post-emergence, 21 days after treatment, read-out: Fresh weight inhibition rate %, B single agent) was found to be 43%.
`COC(=O)[C@@H](C)Oc1ccc(Oc2ncc(C(F)(F)F)cc2Cl)cc1` [haloxyfop-P-methyl]: the “Fresh weight inhibition rate %” value in experiment [5] (B 15 g a.i./ha) came to 7.80%; in experiment [5] (B 25 g a.i./ha), 15.29%; in experiment [5] (B 40 g a.i./ha), 15.32%; in experiment [5] (B 60 g a.i./ha) it was 27.52%.
As to `CCC(CC)Nc1c([N+](=O)[O-])cc(C)c(C)c1[N+](=O)[O-]` [pendimethalin], the “Fresh weight inhibition rate %” value came out at 36.92% in experiment [6] (Table 21, B 300 g a.i./ha) and 54.44% in experiment [6] (Table 21, B 375 g a.i./ha).
On to `CCOCN(C(=O)CCl)c1c(C)cccc1CC` [acetochlor], for which the “Fresh weight inhibition rate %” value in experiment [2] (Table 40, B 250 g a.i./ha) came to 55.88%; in experiment [2] (Table 40, B 375 g a.i./ha) it was 67.45%.
For the compound `CCNc1nc(Cl)nc(NC(C)C)n1` [atrazine], in experiment [1] (Setaria viridis, 504 h, Table 8, 600 g a.i./ha, post-emergence, 21 days after treatment, read-out: Fresh weight inhibition rate %, B single agent), the inhibition at 600 g/ha came to 26.1%. In addition, the inhibition at 750 g/ha in experiment [1] (Setaria viridis, 504 h, Table 8, post-emergence, 21 days after treatment, read-out: Fresh weight inhibition rate %, B single agent) was found to be 33%. Moreover, the inhibition at 800 g/ha in experiment [1] (Setaria viridis, 504 h, Table 8, 800 g a.i./ha, post-emergence, 21 days after treatment, read-out: Fresh weight inhibition rate %, B single agent) came to 41.6%.
Consider `CC(C)c1ccc(NC(=O)N(C)C)cc1` [isoproturon], for which the “Fresh weight inhibition rate %” value in experiment [1] (B 400 g a.i./ha) turned out to be 22.19%; in experiment [1] (B 495 g a.i./ha), 23.26%; in experiment [1] (B 600 g a.i./ha), 33.26%.

In general, inhibition refers to the percentage by which the read-out fell short of the control.
